How the values were obtained:
Test in all cases: In vitro MMP inhibition, Ki determination (fluorogenic substrate II)
Assay type in all cases: biochemical
Human recombinant MMP-13 = target: T1, Human recombinant MMP-13 (Homo sapiens, UniProt P45452)
T1 construct: made in house; host or cells: baculovirus / insect cells
Procedure, shortened: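 Baculovirus-expressed proenzyme, APMA-activated; 4 μM fluorogenic MCA/Dpa peptide substrate (II), at or below Km, in Tris buffer pH 7.5 with CaCl2, 1 hr at room temperature. Fluorescence at 330/420 nm; Ki from non-linear regression with Morrison's equation, not corrected for substrate.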

Human recombinant MMP-1 = target: T2, Human recombinant MMP-1 (Homo sapiens, UniProt P03956)
T2 construct: made in house; host or cells: MMP-1-transfected HT-1080 cells (spent media)
T2 sequence (P03956 100-469): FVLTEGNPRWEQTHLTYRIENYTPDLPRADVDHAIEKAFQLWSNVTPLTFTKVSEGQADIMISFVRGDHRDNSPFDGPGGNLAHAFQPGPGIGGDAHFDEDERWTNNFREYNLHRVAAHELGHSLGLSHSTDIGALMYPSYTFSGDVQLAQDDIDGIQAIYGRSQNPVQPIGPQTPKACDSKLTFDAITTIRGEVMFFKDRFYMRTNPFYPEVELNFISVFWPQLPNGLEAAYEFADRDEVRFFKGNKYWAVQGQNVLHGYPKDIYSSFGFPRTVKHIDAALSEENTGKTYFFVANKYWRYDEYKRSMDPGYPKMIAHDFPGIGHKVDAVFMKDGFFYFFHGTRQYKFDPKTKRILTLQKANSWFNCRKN
Procedure, shortened: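 Activated human recombinant MMP-1 (APMA- or trypsin-activated; proenzyme from transfected HT-1080 cells) incubated 1 hr at room temperature with 4 μM MCA/Dpa fluorogenic substrate II at or below Km in Tris buffer pH 7.5 with CaCl2. Fluorescence ex 330/em 420 nm; Ki from Morrison-equation non-linear regression, uncorrected for substrate.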

Human recombinant MMP-14 = target: T3, Human recombinant MMP-14 (Homo sapiens, UniProt P50281)
T3 construct: The catalytic domain enzyme was expressed in E. coli inclusion bodies, solubilized in urea; made in house
Procedure, shortened: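 Refolded E. coli-expressed MMP-14 catalytic domain, APMA- or trypsin-activated, incubated 1 h at room temperature with 4 μM fluorogenic substrate II in pH 7.5 Tris/NaCl/CaCl2 buffer; fluorescence read at 330/420 nm. Ki from Morrison-equation non-linear regression, substrate at or below Km, uncorrected for substrate.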

[1] = substrate (II) 4 μM, 1 hr room temperature, apparent Ki, values in parenthesis

Structure (SMILES) | Ki (Human recombinant MMP-13; value in parentheses) | Ki (Human recombinant MMP-1; value in parentheses) | Ki (Human recombinant MMP-14; value in parentheses) | Ki (Human recombinant MMP-13; value in parenthesis) | Ki (Human recombinant MMP-1; value in parenthesis) | Ki (Human recombinant MMP-14; value in parenthesis) | also measured
CCCCc1ccc(COc2ccc(S(=O)(=O)C3(C(=O)NO)CCOCC3)cc2)cn1 [Example 551] | 0.62 nM | > 10000 nM | 2060 nM | – | – | – | –
COCCN1CCC(C(=O)NO)(S(=O)(=O)c2ccc(OCCCc3cccc(-c4ccc(Cl)cc4)c3)cc2)CC1 [Example 50] | – | – | – | – | – | – | Ki (Human recombinant MMP-13; [1]): 0.6 nM; Ki (Human recombinant MMP-1; [1]): > 10000 nM; Ki (Human recombinant MMP-14; [1]): > 10000 nM
COCCN1CCC(C(=O)NO)(S(=O)(=O)c2ccc(OCCc3cccc(-c4ccccc4F)c3)cc2)CC1 [Example 540] | 0.58 nM | > 10000 nM | > 10000 nM | – | – | – | –
O=C(NO)C1(S(=O)(=O)c2ccc(OCCCc3nc(-c4ccc(OC(F)(F)F)cc4)no3)cc2)CCN(Cc2ccccc2)CC1 [Example 93] | – | – | – | 9.29 nM | > 10000 nM | > 10000 nM | –
COCCN1CCC(C(=O)NO)(S(=O)(=O)c2ccc(OCCCc3nc(-c4ccc(Br)cc4C)no3)cc2)CC1 [Example 135] | – | – | – | 0.761 nM | > 10000 nM | 9510 nM | –
COCCN1CCC(C(=O)NO)(S(=O)(=O)c2ccc(OCCCc3nc(-c4ccc(C5(c6ccccc6)CC5)cc4)no3)cc2)CC1 [Example 185] | – | – | – | 3.73 nM | > 10000 nM | > 10000 nM | –
O=C(NO)C1(S(=O)(=O)c2ccc(OCCCc3cccc(-c4ccc(F)c(F)c4)c3)cc2)CCOCC1 [Example 170] | – | – | – | 6.79 nM | > 10000 nM | > 10000 nM | –
O=C(NO)C1(S(=O)(=O)c2ccc(OCCc3cccc(-c4cc(F)cc(F)c4)c3)cc2)CCOCC1 [Example 110] | – | – | – | 11.4 nM | > 10000 nM | > 10000 nM | –
O=C(NO)C1(S(=O)(=O)c2ccc(OCCc3cccc(-c4ccccc4Cl)c3)cc2)CCOCC1 [Example 114] | – | – | – | 4.2 nM | > 10000 nM | > 10000 nM | –
NC(=O)c1cccc(-c2noc(CCCOc3ccc(S(=O)(=O)C4(C(=O)NO)CCN(C5CC5)CC4)cc3)n2)c1 [Example 129] | – | – | – | 0.27 nM | > 10000 nM | > 10000 nM | –
O=C(NO)C1(S(=O)(=O)c2ccc(OCCCc3cccc(-c4cc(Cl)cc(Cl)c4)c3)cc2)CCOCC1 [Example 172] | – | – | – | 71.1 nM | > 10000 nM | > 10000 nM | –
O=C(NO)C1(S(=O)(=O)c2ccc(OCCc3cccc(-c4cc(Cl)cc(Cl)c4)c3)cc2)CCOCC1 [Example 126] | – | – | – | 81.3 nM | > 10000 nM | > 10000 nM | –
COCCN1CCC(C(=O)NO)(S(=O)(=O)c2ccc(OCCc3cccc(-c4ccc(Cl)cc4)c3)cc2)CC1 [Example 547] | 2.28 nM | > 10000 nM | > 10000 nM | – | – | – | –
COCCN1CCC(C(=O)NO)(S(=O)(=O)c2ccc(OCCc3cccc(-c4cccc(F)c4)c3)cc2)CC1 [Example 545] | 1.11 nM | > 10000 nM | > 10000 nM | – | – | – | –
O=C(NO)C1(S(=O)(=O)c2ccc(OCCc3ccccn3)cc2)CCOCC1 [Example 556] | 53.2 nM | 8970 nM | 3500 nM | – | – | – | –
O=C(NO)C1(S(=O)(=O)c2ccc(OCCc3cccnc3)cc2)CCOCC1 [Example 557] | 3.68 nM | > 10000 nM | 52.2 nM | – | – | – | –
COCCN1CCC(C(=O)NO)(S(=O)(=O)c2ccc(OCCNC(=O)c3cc4ccccc4o3)cc2)CC1 [Example 553] | 0.259 nM | > 10000 nM | 2260 nM | – | – | – | –
O=C(NCCSc1ccc(S(=O)(=O)C2(C(=O)NO)CCN(C3CC3)CC2)cc1)c1nc2ccccc2s1 [Example 541] | 0.24 nM | > 10000 nM | > 10000 nM | – | – | – | –
COCCN1CCC(C(=O)NO)(S(=O)(=O)c2ccc(OCCCc3cccc(-c4ccccc4F)c3)cc2)CC1 [Example 512] | 1.07 nM | > 10000 nM | > 10000 nM | – | – | – | –

Structure (SMILES) | Ki (Human recombinant MMP-13; value in parentheses) | Ki (Human recombinant MMP-1; value in parentheses) | Ki (Human recombinant MMP-14; value in parentheses) | Ki (Human recombinant MMP-13; value in parenthesis) | Ki (Human recombinant MMP-1; value in parenthesis) | Ki (Human recombinant MMP-14; value in parenthesis) | also measured
CCC(=O)c1cccc(CCCOc2ccc(S(=O)(=O)C3(C(=O)NO)CCOCC3)cc2)c1 [Example 528] | 2.57 nM | > 10000 nM | 5700 nM | – | – | – | –
COCCN1CCC(C(=O)NO)(S(=O)(=O)c2ccc(OCCc3cccc(-c4ccc(F)c(F)c4)c3)cc2)CC1 [Example 549] | 1.87 nM | > 10000 nM | > 10000 nM | – | – | – | –
O=C(NO)C1(S(=O)(=O)c2ccc(OCCCOc3cncnc3)cc2)CCOCC1 [Example 559] | 1.51 nM | > 10000 nM | 845 nM | – | – | – | –
Cc1cc(-c2cccc(CCCOc3ccc(S(=O)(=O)C4(C(=O)NO)CCOCC4)cc3)c2)ccc1Cl [Example 166] | – | – | – | 63.4 nM | > 10000 nM | > 10000 nM | –
CCCC(=O)CCCOc1ccc(S(=O)(=O)C2(C(=O)NO)CCOCC2)cc1 [Example 505] | 0.81 nM | 850 nM | 962 nM | – | – | – | –
COCCN1CCC(C(=O)NO)(S(=O)(=O)c2ccc(OCCc3cccc(-c4ccc(F)cc4F)c3)cc2)CC1 [Example 546] | 1.06 nM | > 10000 nM | > 10000 nM | – | – | – | –
COCCN1CCC(C(=O)NO)(S(=O)(=O)c2ccc(OCCc3cccc(-c4ccccc4)c3)cc2)CC1 [Example 45] | – | – | – | – | – | – | Ki (Human recombinant MMP-13; [1]): 0.62 nM; Ki (Human recombinant MMP-1; [1]): > 10000 nM; Ki (Human recombinant MMP-14; [1]): > 10000 nM
O=C(NCCSc1ccc(S(=O)(=O)C2(C(=O)NO)CCN(C3CC3)CC2)cc1)c1cc2ccccc2o1 [Example 542] | 0.86 nM | > 10000 nM | > 10000 nM | – | – | – | –
Cc1cc(-c2cccc(CCCOc3ccc(S(=O)(=O)C4(C(=O)NO)CCOCC4)cc3)c2)ccc1F [Example 168] | – | – | – | 27.3 nM | > 10000 nM | > 10000 nM | –
O=C(NO)C1(S(=O)(=O)c2ccc(OCCc3cccc(-c4cccc(F)c4)c3)cc2)CCOCC1 [Example 111] | – | – | – | 6.39 nM | > 10000 nM | > 10000 nM | –
COCCN1CCC(C(=O)NO)(S(=O)(=O)c2ccc(OCCc3cccc(-c4ccncc4)c3)cc2)CC1 [Example 538] | 0.184 nM | > 10000 nM | 1700 nM | – | – | – | –
O=C(NO)C1(S(=O)(=O)c2ccc(OCCCc3ccc(F)c(-c4ccccc4)c3)cc2)CCOCC1 [Example 504] | 4.65 nM | > 10000 nM | > 10000 nM | – | – | – | –
O=C(NO)C1(S(=O)(=O)c2ccc(OCCCOCc3ccncc3)cc2)CCOCC1 [Example 555] | 0.261 nM | > 10000 nM | 689 nM | – | – | – | –
O=C(NO)C1(S(=O)(=O)c2ccc(OCCCc3cccc(-c4ccc(O)cc4)c3)cc2)CCOCC1 [Example 529] | 20.2 nM | > 10000 nM | > 10000 nM | – | – | – | –
COCCN1CCC(C(=O)NO)(S(=O)(=O)c2ccc(OCCCc3cccc(-c4ccc(F)c(F)c4)c3)cc2)CC1 [Example 52] | – | – | – | – | – | – | Ki (Human recombinant MMP-13; [1]): 0.81 nM; Ki (Human recombinant MMP-1; [1]): > 10000 nM; Ki (Human recombinant MMP-14; [1]): > 10000 nM
O=C(NO)C1(S(=O)(=O)c2ccc(OCCCc3cccc(-c4ccc(Cl)cc4Cl)c3)cc2)CCOCC1 [Example 171] | – | – | – | 12.5 nM | > 10000 nM | > 10000 nM | –
O=C(NO)C1(S(=O)(=O)c2ccc(OCCOc3cncnc3)cc2)CCOCC1 [Example 554] | 14.5 nM | > 10000 nM | > 10000 nM | – | – | – | –
O=C(NO)C1(S(=O)(=O)c2ccc(OCCc3ccc(-c4cccc(O)c4)cc3)cc2)CCOCC1 [Example 532] | 1.02 nM | > 10000 nM | > 10000 nM | – | – | – | –
C#Cc1ccc(-c2cccc(CCCOc3ccc(S(=O)(=O)C4(C(=O)NO)CCN(CCOC)CC4)cc3)c2)cc1 [Example 646] | 0.16 nM | > 10000 nM | 4300 nM | – | – | – | –

Reference: patent US20040024024A1, “Aromatic sulfone hydroxamates and their use as protease inhibitors” (priority 2001, published 2004)
